Data taken from US20260200927A1, “NON PEPTIDERGIC AGONISTS OF OXYTOCIN RECEPTOR” (UNIVERSITE DE STRASBOURG, priority 2022, published 2026).

What was measured:
oxytocin receptor = molecular target: T1, oxytocin receptor (Homo sapiens, UniProt P30559); assay: IP-One IP1 accumulation assay in CHO cell lines expressing oxytocin receptor (agonism); format: cell-based; settings: CHO cells expressing oxytocin receptor, n = 3, read-out: OT-R EC50
T1 construct: expressed in transfected cells; host or cells: CHO cell lines
T1 sequence (P30559 1-389): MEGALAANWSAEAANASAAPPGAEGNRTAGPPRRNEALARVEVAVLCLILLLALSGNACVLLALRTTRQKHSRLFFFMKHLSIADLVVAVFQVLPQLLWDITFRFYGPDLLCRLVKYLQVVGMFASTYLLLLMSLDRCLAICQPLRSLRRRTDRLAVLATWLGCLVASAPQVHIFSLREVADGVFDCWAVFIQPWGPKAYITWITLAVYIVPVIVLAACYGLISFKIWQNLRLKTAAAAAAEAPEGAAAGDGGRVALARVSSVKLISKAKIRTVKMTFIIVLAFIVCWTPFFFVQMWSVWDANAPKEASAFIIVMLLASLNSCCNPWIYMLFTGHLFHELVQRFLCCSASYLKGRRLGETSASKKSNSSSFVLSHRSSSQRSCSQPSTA
Protocol: The activation constants (EC50 in nM) were measured in CHO cell lines expressing oxytocin receptor by IP-One IP1 accumulation assay. These values are the mean±SEM of at least three separate experiments performed in triplicate.

[1] = cited from earlier work
V1A-R = V1A-R (Homo sapiens, UniProt P37288); assay: V1A receptor antagonism measured as calcium signal; format: cell-based; settings: antagonist, n = 3, read-out: V1A-R (Antago) IC50
Sequence of V1A-R (P37288 whole entry, species assumed): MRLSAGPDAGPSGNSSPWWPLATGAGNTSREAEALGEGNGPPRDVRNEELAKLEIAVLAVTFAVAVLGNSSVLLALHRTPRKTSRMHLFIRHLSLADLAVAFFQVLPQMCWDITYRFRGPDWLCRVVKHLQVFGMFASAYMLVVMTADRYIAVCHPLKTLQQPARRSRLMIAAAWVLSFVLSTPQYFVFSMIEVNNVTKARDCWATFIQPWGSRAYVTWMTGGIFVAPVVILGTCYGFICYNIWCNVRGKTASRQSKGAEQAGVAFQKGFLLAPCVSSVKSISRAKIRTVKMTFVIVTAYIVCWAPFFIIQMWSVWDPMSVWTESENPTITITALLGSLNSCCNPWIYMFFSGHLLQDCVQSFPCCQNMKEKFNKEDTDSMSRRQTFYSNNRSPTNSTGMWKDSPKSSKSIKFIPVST

Structure (SMILES) | EC50 (oxytocin receptor) [nM] | other results
Cc1cc(C(=O)N2Cc3cnn(C)c3Nc3ccccc32)ccc1CNC(=O)N1CC(OCCC2NC(=O)NC2=O)CC1C(=S)N(C)C [Compound 21, (2S,4R)-2-(dimethylcarbamothioyl)-4-[2-(2,5-dioxoimidazolidin-4-yl)ethoxy]-N-[(2-methyl-4-4-methyl-2,4,5,9-tetraazatricyclo[8.4.0.0,3,7]tetradeca-1(14),3(7),5,10,12-pentaene-9-carbonylphenyl)methyl]pyrrolidine-1-carboxamide] | 14.4 | –
Cc1cc(C(=O)N2Cc3cnn(C)c3Nc3ccccc32)ccc1CNC(=O)N1C[C@H](OCCCCO)C[C@H]1C(=S)N(C)C [Compound 7, (2S,4R)-2-(dimethylcarbamothioyl)-4-(4-hydroxybutoxy)-N-[(2-methyl-4-4-methyl-2,4,5,9-tetraazatricyclo[8.4.0.0,3,7]tetradeca-1(14),3(7),5,10,12-pentaene-9-carbonylphenyl)methyl]pyrrolidine-1-carboxamide] | 11.6 | –
CO[C@@H]1C[C@@H](C(=S)N(C)C)N(C(=O)NCc2ccc(C(=O)N3Cc4cnn(C)c4Nc4ccccc43)cc2C)C1 [Compound 3] | 33 | –
CC[C@H](C)[C@@H]1NC(=O)[C@H](Cc2ccc(O)cc2)NC(=O)[C@@H](N)CSSC[C@@H](C(=O)N2CCC[C@H]2C(=O)N[C@@H](CC(C)C)C(=O)NCC(N)=O)NC(=O)[C@H](CC(N)=O)NC(=O)[C@H](CCC(N)=O)NC1=O [OT] | – | half-life in blood [1]: about 3 minute
Cc1cc(C(=O)N2Cc3cnn(C)c3Nc3ccccc32)ccc1CNC(=O)N1C[C@H](F)C[C@H]1C(=S)N(C)C [Compound 1] | – | IC50 (V1A-R): 250 nM
Cc1cc(C(=O)N2Cc3cnn(C)c3Nc3ccccc32)ccc1CNC(=O)N1C[C@H](OCc2cccc(S(N)(=O)=O)c2)C[C@H]1C(=S)N(C)C [Compound 13, (2S,4R)-2-(dimethylcarbamothioyl)-N-[(2-methyl-4-4-methyl-2,4,5,9-tetraazatricyclo[8.4.0.0,3,7]tetradeca-1(14),3(7),5,10,12-pentaene-9-carbonylphenyl)methyl]-4-[(3-sulfamoylphenyl)methoxy]pyrrolidine-1-carboxamide] | 33 | –
Cc1cc(C(=O)N2Cc3cnn(C)c3Nc3ccccc32)ccc1CNC(=O)N1C[C@H](OCCCO)C[C@H]1C(=S)N(C)C [Compound 6, (2S,4R)-2-(dimethylcarbamothioyl)-4-(3-hydroxypropoxy)-N-[(2-methyl-4-4-methyl-2,4,5,9-tetraazatricyclo[8.4.0.0,3,7]tetradeca-1(14),3(7),5,10,12-pentaene-9-carbonylphenyl)methyl]pyrrolidine-1-carboxamide] | 29.8 | –
Cc1cc(C(=O)N2Cc3cnn(C)c3Nc3ccccc32)ccc1CNC(=O)N1C[C@H](OCc2nnn[nH]2)C[C@H]1C(=S)N(C)C [Compound 19, (2S,4R)-2-(dimethylcarbamothioyl)-N-[(2-methyl-4-4-methyl-2,4,5,9-tetraazatricyclo[8.4.0.0,3,7]tetradeca-1(14),3(7),5,10,12-pentaene-9-carbonylphenyl)methyl]-4-[(1H-1,2,3,4-tetrazol-5-yl)methoxy]pyrrolidine-1-carboxamide] | 17.4 | –
